Here are results for one compound from article PMC11859092 (Pharmaceutics, 2025).

≈ marks a conversion by molar mass, not a printed value.

Broadly, the CC50 is the concentration giving 50% cytotoxicity. One may read the EC50 as the concentration that produces a half-maximal response. Lower therefore signals greater potency.

The nature of series [1]: In vitro cytotoxicity test (MTT). It is filed as cell-based. Here is the method:
Thereafter, cell viability was determined by the 3-(4,5-dimethylthiazol-2-yl)-2,5-diphenyl tetrazolium bromide (MTT, Sigma-Aldrich, St. Louis, MO, USA) method at a final concentration 0.5 mg/mL. After 2 h of incubation at 37 °C, the supernatants were removed, ethanol was added to each well to solubilize the formazan crystals and absorbance was measured in a multi-mode microplate reader (FLUOstar® Omega, Labtech, Eschelbronn, Germany) at 595 nm. […] All determinations were performed in triplicate.

A further series has as its system DENV-2. In words: microbe, parasite or virus in culture. It is filed as cell-based, DENV type-2 (DENV-2) strain NGC. The settings on record: Dengue virus.
For series [2] the following is noted: cited from earlier work.
The nature of series [3]: EFV solubilization in Soluplus nanomicelle dispersions (apparent aqueous solubility, RP-HPLC). The settings on record: distilled water, 25 °C.
For series [4] the following is noted: cited from earlier work. This is another data set of the same source.
The subject of another series is YFV. In words: microbe, parasite or virus in culture. The settings on record: Yellow fever virus. It is filed as cell-based, YFV vaccine strain YF-17D.
The next series deals with ZIKV. In words: Virus yield inhibition assay (PFU). The settings on record: Zika virus, m.o.i. 0.1, 48 h p.i. It counts as cell-based, ZIKV INEVH-116141 strain.

For `O=C1Nc2ccc(Cl)cc2[C@@](C#CC2CC2)(C(F)(F)F)O1` [EFV, Efavirenz], the CC50 at 48 h in series [1] (African green monkey, Vero) was found to be 56.8 µg/mL (≈ 180 µM); in series [1] (human, A549, 48 h), 126 µg/mL (≈ 399 µM). Besides, the EC50 with DENV-2 (DENV2, A549, 48 h) stood at 2.69 µg/mL (≈ 8.52 µM); in the series on DENV-2 (DENV2, Vero, 48 h) it was 8.17 µg/mL (≈ 25.9 µM); in the series on YFV (A549, 48 h) it was 12.6 µg/mL (≈ 39.9 µM); in the series with YFV (Vero, 48 h), 1.48 µg/mL (≈ 4.69 µM); in the series with ZIKV (ZIKV in A549 cells), 4.98 µg/mL (≈ 15.8 µM); in the series on ZIKV (ZIKV in Vero cells) it was 2.41 µg/mL (≈ 7.63 µM). In series [2], the “biopharmaceutical classification system (BCS) class” value is “class II”. For the same compound, in series [2], the intrinsic aqueous solubility is listed as 4 µg/mL. For the same compound, the “PM molar partition coefficient (micelle/water)” value in series [3] (Soluplus 1% w/v) is 5368; in series [3] (Soluplus 3% w/v) it was 5220; in series [3] (Soluplus 5% w/v), 5303; in series [3] (Soluplus 7% w/v) it was 6181; in series [3] (Soluplus 10% w/v), 5666. The “P partition coefficient (micelle/water)” value in series [3] (Soluplus 3% w/v) was 1327; in series [3] (Soluplus 5% w/v), 2247; in series [3] (Soluplus 7% w/v), 3667; in series [3] (Soluplus 10% w/v) it was 4802. Further, the Cmax in humans in series [4] was 4000 ng/mL.
